Patent US20240148836A1, “COMPOSITION FOR TREATING CANCER EXPRESSING SPARC” (SEOUL NATIONAL UNIVERSITY R&DB FOUNDATION, priority 2021, published 2024)
Entries after “also recorded” stand apart in the source; their conditions may differ.

Legend:
[1] = TUNEL assay of kidney sections; format: in vivo, mice; settings: FIGS. 8A and 8B
Source text: The tumor and kidney were fixed with 4% paraformaldehyde and embedded in paraffin, which was further cut into […] sections. To evaluate cellular apoptosis in kidney, a kidney section was stained using a TUNEL assay kit-HRP-DAB (ab206386; abcam, Cambridge, UK) according to the manufacturer's protocols.

[2] = system: U87MG cells; experiment: Cellular cytotoxicity, Cell Counting Kit-8 (CCK-8) assay; format: cell-based, Human; settings: 72 h
Experimental: (§1) Human glioma cells (U87MG) were obtained from American Type Culture Collection (ATCC; Manassas, VA, USA). Low SPARC-expressing U87MG cells, U87MG-shSPARC, were established from a previous study.
(§2) (1) U87MG and U87MG-shSPARC cells were added to 96-well plates (4000 cells/well). […] Cell viability was analyzed using a Cell Counting Kit-8 (CCK-8, Dojindo Molecular Technologies, Tokyo, Japan) assay according to the manufacturer's protocols.
(2) To execute cellular cytotoxicity experiments of HSA bound with CDDPs in different numbers, U87MG cells were added to a 96-well plate (4000 cells/well) and incubated overnight. […] Cell viability was analyzed using a Cell Counting Kit-8 (CCK-8, Dojindo Molecular Technologies, Tokyo, Japan) assay according to the manufacturer's protocols.

[3] = Histopathology examination, H&E staining; format: in vivo; settings: drug-treated mice, FIG. 7B
Source text: The kidney, liver, and spleen of the drug-treated mice were acquired and fixed with 4% paraformaldehyde. Tissues were embedded in paraffin and stained with hematoxylin and eosin (H&E). H&E staining images were acquired using an optical microscope (Olympus BX43, Tokyo, Japan).

[4] = Biosafety: body weight and blood biochemical analysis; format: in vivo, mice
Experimental: After centrifugation at 4° C. for 20 min, the plasma was collected for blood biochemical analysis. The concentrations of AST, ALT, BUN, and creatinine were analyzed at DKKorea (Seoul, Korea).

[5] = system: U87MG tumor xenograft; experiment: Xenograft tumor model, anti-tumor effect in vivo; set-up: species or system BALB/c nude mice; settings: for weight of mice: xenograft tumor models (U87MG and U87MG-shSPARC), FIG. 5C, 5D, 3 mg/kg IV 7 times
Experimental: BALB/c nude mice (5-week-old, male) were purchased from Orient Bio Inc. (Seongnam, Korea). U87MG or U87MG-shSPARC cells (2×10^6 cells/site) were injected subcutaneously into the right lower flanks.
(§3) The tumor size and body weight of each mouse were recorded every other day. Tumor volume was calculated using the equation V=0.5×L×W^2, where L represents tumor length and W represents tumor width.

[6] = system: U87MG-shSPARC cells; experiment: Cellular cytotoxicity, Cell Counting Kit-8 (CCK-8) assay; format: cell-based, Human; settings: 72 h, CCK-8, n=5, Table 1
Experimental: as §1, §2

[7] = system: U87MG tumors; experiment: Tumor CDDP accumulation using ICP-MS; format: in vivo, mice; settings: 72 h after last of 7 IV doses, FIG. 6B
Experimental: For tumor CDDP distribution, U87MG or U87MG-shSPARC cells (2×10^6 cells/site) were injected subcutaneously into the right lower flanks. […] At 72 h after the last IV administration (15 days after first administration), mice were euthanized, and the tumor was acquired.
All samples (organs, blood, and tumors) were lyophilized and we analyzed the amount of CDDP using the ICP-MS (NexION 350; Perkin-Elmer, Waltham, MA, USA) installed at the National Center for Inter-university Research Facilities (NCIRF) at Seoul National University.

[8] = system: U87MG-shSPARC tumor xenograft; experiment: Xenograft tumor model, anti-tumor effect in vivo; set-up: species or system BALB/c nude mice
Experimental: All animal studies were performed under approval from the Seoul National University Institutional Animal Care and Use Committee (IACUC No. 18-0231, 1 Nov. 2018). BALB/c nude mice (5-week-old, male) were purchased from Orient Bio Inc. (Seongnam, Korea). U87MG or U87MG-shSPARC cells (2×10^6 cells/site) were injected subcutaneously into the right lower flanks.
as §3

Structure (SMILES): N.N.[Cl][Pt][Cl] [CDDP, cis-diamine dichloroplatinum (II)]
- TUNEL positive cells in kidney [1]: TUNEL positive cells were only identified in the kidney of CDDP-treated mice
- IC50 ([2]; CCK-8, n=5, Table 1): 2540 ± 134 nM
- IC50 ([2]; CCK-8, n=6, Table 2 (CDDP number-dependent HSA)): 4720 ± 110 nM
- H&E staining of kidney tissue [3]: tubular degeneration; also recorded: extensive epithelial vacuolization; also recorded: degeneration of renal tubules; also recorded: vacuolation of epithelial cells
- body weight ([4]; 72 h after final treatment (every other day, seven times), FIG. 7A): significant body weight loss compared to the PBS and HSA-CDDP groups
- blood urea nitrogen (BUN) ([4]; kidney function, 72 h after final treatment): increased
- survival rate ([5]; U87MG tumor model vs PBS group, FIG. 5E): prolonged survival time than the PBS group
- tumor growth ([5]; U87MG tumor model, 12 days after first drug treatment, 3 mg/kg CDDP equivalent IV every other day 7 times, p<0.001): significantly reduced tumor growth than the PBS group
- Median survival ([5]; U87MG tumor xenograft model, 3 mg/kg CDDP equivalent IV 7 times): 22 days
- weight of mice [5]: significantly decreased
- weight of mice ([5]; listed as CCDP): significant weight loss compared to the group treated with PBS
- IC50 [6]: 2650 ± 130 nM
- accumulation of CDDP, U87MG vs U87MG-shSPARC tumors [7]: no difference in CDDP accumulation between U87MG and U87MG-shSPARC
- survival rate ([8]; U87MG-shSPARC tumor model vs PBS group, FIG. 5F): prolonged survival
- tumor growth ([8]; U87MG-shSPARC tumor model, 26 days after first drug treatment, 3 mg/kg CDDP equivalent IV every other day 7 times): significantly reduced tumor growth than the PBS group
- Median survival ([8]; U87MG-shSPARC tumor xenograft model, 3 mg/kg CDDP equivalent IV 7 times): 42 days
